In series [1] the test system is passive cutaneous anaphylactic (PCA) reaction. Briefly: Passive cutaneous anaphylactic (PCA) reaction, reagin-allergen combination, in rats. The series is classed as in vivo. The settings on record: Rattus norvegicus; for ED100: intravenous, just before injection of allergen, read-out: ED100 (intravenous dose which produces 100% inhibition of the PCA reaction); for inhibition in vivo at 100 mg/kg: oral dose of 100 mg/kg; for inhibition in vivo at 100 mg/kg / ED50: thirty minutes before intravenous allergen; for ED50: oral, read-out: ED50 (oral dose which produces 50% inhibition of the PCA reaction). An excerpt: In pharmacological tests the benzamide derivatives of general formula I suppress the passive cutaneous anaphylactic (PCA) reaction resulting from combination of tissue-fixed reaginic antibodies with the appropriate antigenic material (termed reagin-allergen combination) and carried out in an essentially similar manner to that described by Ogilvie [Nature (Lond.), (1964), 204, 91-92; Immunology, (1967), 12, 112-131]. In the method used to test these compounds sera were obtained from rats which had been infected with larvae of the nematode parasite Nippostrongylus brasiliensis; as a result of the parasitic infestation reaginic antibodies are elaborated in the host mammal and are found in sera removed from such animals. Other, non-infected, rats received intradermal injections of appropriate dilutions of such sera and were then given the allergenic material along with Evans' blue dye intravenously forty-eight hours later.
The allergenic material consisted of supernatant fluid after centrifugation of homogenates of adult Nippostrongylus brasiliensis worms which had been macerated in Tyrode's solution. The sites of PCA reactions were visualised by the effusion of Evan's blue dye from the circulation into those areas as a result of increased capillary permeability caused by the release of biologically-active substances from cells where reagin-allergen combination had occurred. The new compounds when given intravenously to the rats just before injection of allergen, or administered orally thirty minutes before intravenous injection of allergen, were able to prevent the development of the PCA reaction, as shown below in Table I, Table II and Table III.

A short description of series [2]: Acute oral toxicity in mice. Conditions: mouse, in vivo, highest dose used 1000 mg/kg, read-out: LD50 (doses lethal to 50% of mice tested). The source says:
Mice were each treated orally with one of the compounds of formula I, and they were observed daily until there had been at least 3 consecutive days without any deaths. The LD50 figures obtained (doses lethal to 50% of mice tested) are shown below in Table IV, expressed in mg/kg animal body weight.
The symbol ">" means "greater than" in this specification. Where the LD50 is said to be ">1000," a more precise estimation of the LD50 was not possible because the numbers of deaths was too small, even at the highest dose used, 1000 mg/kg.

The nature of series [3]: Acute intravenous toxicity in mice. Conditions: mouse, in vivo. The source says:
Mice were each treated intravenously with an aqueous solution of the triethanolamine salt or sodium salt of one of the compounds of formula I, and they were observed until there had been at least 3 consecutive days without any deaths. The LD50 figures obtained (doses lethal to 50% of mice tested) are shown below in Table V, expressed in mg/kg animal body weight. In Table V, "Na" means that the sodium salt was used and "T" means that the triethanolamine salt was used.
The aqueous solutions were prepared as follows:
A mixture of the test compound and water was treated gradually with triethanolamine until complete solution occurred. The solution was then diluted with water to a concentration of test compound of either 1% w/v or 2% w/v.
The test compound was dissolved in aqueous sodium hydroxide (1N) and the solution was brought to pH 8 by treatment with hydrochloric acid. The solution was then diluted with water to a concentration of test compound of 2% w/v.
Various volumes of these solutions were then administered to the mice.

[4] abbreviates: sodium salt (Na), 2% w/v test solution.
[5] abbreviates: triethanolamine salt (T), 2% w/v test solution.

This note sets out measurements from patent publication US4146631A, “Benzamide derivatives” (May & Baker Limited, priority 1976, dated 1979).

A value given as a limit tells only on which side of the number the result lay.

In the case of `Cc1ccc(O)c(C(=O)Nc2nnn[nH]2)c1` [AG, 2-hydroxy-5-methyl-N-(tetrazol-5-yl)benzamide], the ED100 in series [1] was found to be 1 mg/kg. Moreover, the LD50 in series [2] is greater than 1000 mg/kg; in series [3] (setting [4]) it was 670 mg/kg.

Turning to `Cc1cccc(C(=O)Nc2nnn[nH]2)c1O` [AH, 2-hydroxy-3-methyl-N-(tetrazol-5-yl)benzamide], in series [1], the ED100 is 0.5 mg/kg, the inhibition in vivo at 100 mg/kg was 82% and the ED50 amounted to 10 mg/kg. Besides, the LD50 in series [2] was greater than 1000 mg/kg. Moreover, in series [3] (setting [5]), the LD50 turned out to be 770 mg/kg.

`O=C(Nc1nnn[nH]1)c1cccc([N+](=O)[O-])c1O` [AI, 2-hydroxy-3-nitro-N-(tetrazol-5-yl)benzamide]: in series [1], the ED100 was found to be 0.5 mg/kg, the inhibition in vivo at 100 mg/kg turned out to be 68% and the median effective dose (ED50) was 5 to 30 mg/kg. The LD50 in series [2] is greater than 1000 mg/kg. For the same compound, the median lethal dose (LD50) in series [3] (setting [5]) is greater than 1000 mg/kg.

On to `O=C(Nc1nnn[nH]1)c1cc([N+](=O)[O-])ccc1O` [AO, 2-hydroxy-5-nitro-N-(tetrazol-5-yl)benzamide], for which, in series [1], the ED100 turned out to be 0.2 mg/kg, the inhibition in vivo at 100 mg/kg came out at 48% and the ED50 came out at 100 mg/kg. Also, the LD50 in series [2] was greater than 1000 mg/kg. In series [3] (setting [5]), the LD50 amounted to 870 mg/kg.

`COc1ccc(O)c(C(=O)Nc2nnn[nH]2)c1` [AP, 2-hydroxy-5-methoxy-N-(tetrazol-5-yl)benzamide]: in series [1], the ED100 is 0.5 mg/kg, the inhibition in vivo at 100 mg/kg was determined as 75% and the ED50 turned out to be 100 mg/kg. In addition, in series [2], the LD50 is greater than 1000 mg/kg. In addition, the LD50 in series [3] (setting [4]) was found to be 950 mg/kg.

For the compound `CCCCN(CCCC)S(=O)(=O)c1ccc(O)c(C(=O)Nc2nnn[nH]2)c1` [AQ, 5-(N,N-dibutylsulphamoyl)-2-hydroxy-N-(tetrazol-5-yl)benzamide], the LD50 is greater than 1000 mg/kg in series [2] and 280 mg/kg in series [3] (setting [4]).

Turning to `CC(=O)c1cc(C)cc(C(=O)Nc2nnn[nH]2)c1O` [AR, 3-acetyl-2-hydroxy-5-methyl-N-(tetrazol-5-yl)benzamide], in series [1], the ED100 came out at 0.1 mg/kg, the inhibition in vivo at 100 mg/kg stood at 42% and the ED50 turned out to be 0.75 mg/kg. For the same compound, in series [2], the LD50 was greater than 1000 mg/kg. In addition, in series [3] (setting [5]), the LD50 amounted to 430 mg/kg.

For the compound `CCOc1cccc(C(=O)Nc2nnn[nH]2)c1O` [AS, 3-ethoxy-2-hydroxy-N-(tetrazol-5-yl)benzamide], in series [1], the ED100 turned out to be 1 mg/kg, the inhibition in vivo at 100 mg/kg was 76% and the ED50 came to 10 mg/kg. Also, the LD50 in series [2] was greater than 1000 mg/kg. Also, the 50% lethal dose (LD50) in series [3] (setting [5]) came to 560 mg/kg.

With `CC(=O)c1cc(C(=O)Nc2nnn[nH]2)c(O)c(C(C)=O)c1O` [AW, 3,5-diacetyl-2,4-dihydroxy-N-(tetrazol-5-yl)benzamide], in series [1], the ED100 was 5 mg/kg and the inhibition in vivo at 100 mg/kg worked out at 84%. For the same compound, in series [2], the LD50 was greater than 1000 mg/kg. In series [3] (setting [5]), the LD50 came out at 710 mg/kg.

Consider `O=C(Nc1nnn[nH]1)c1ccc(Cl)cc1O` [AX, 4-chloro-2-hydroxy-N-(tetrazol-5-yl)benzamide], for which the figures for the LD50 in series [2] and in series [3] (setting [5]) were greater than 1000 mg/kg and 260 mg/kg, respectively.

`CC(C)(C)c1ccc(C(=O)Nc2nnn[nH]2)c(O)c1` [BA, 4-tert-butyl-2-hydroxy-N-(tetrazol-5-yl)benzamide]: the ED100 in series [1] stood at 10 mg/kg. In series [1], the inhibition in vivo at 100 mg/kg amounted to 37%. Moreover, the LD50 was greater than 1000 mg/kg in series [2] and 230 mg/kg in series [3] (setting [5]).

Take `CC(=O)Nc1ccc(C(=O)Nc2nnn[nH]2)c(O)c1` [BB, 4-acetylamino-2-hydroxy-N-(tetrazol-5-yl)benzamide]: in series [1], the ED100 came out at 1 mg/kg and the inhibition in vivo at 100 mg/kg worked out at 26%. Further, the LD50 in series [2] is greater than 1000 mg/kg. The LD50 in series [3] (setting [5]) came out at 645 mg/kg.

As for `O=C(Nc1nnn[nH]1)c1cc(-c2ccccc2)ccc1O` [BG, 2-hydroxy-5-phenyl-N-(tetrazol-5-yl)benzamide], the ED100 in series [1] stood at 10 mg/kg. Besides, the LD50 in series [2] was greater than 1000 mg/kg; in series [3] (triethanolamine salt (T), 1% w/v test solution) it was 200 mg/kg.

Regarding `Cc1cc(C(=O)Nc2nnn[nH]2)c(O)c(S(=O)(=O)NC(C)(C)C)c1` [BT, 3-(N-tert-butylsulphamoyl)-2-hydroxy-5-methyl-N-(tetrazol-5-yl)benzamide], the results for the LD50 in series [2] and in series [3] (setting [4]) were greater than 1000 mg/kg and 500 mg/kg, respectively.

`CCc1cc(C(C)=O)c(O)c(C(=O)Nc2nnn[nH]2)c1` [BW, 3-acetyl-5-ethyl-2-hydroxy-N-(tetrazol-5-yl)benzamide]: in series [1], the ED100 was determined as 0.1 mg/kg, the inhibition in vivo at 100 mg/kg was 51% and the ED50 stood at 0.1 mg/kg. Besides, in series [2], the LD50 was greater than 1000 mg/kg. Moreover, the LD50 in series [3] (setting [4]) came out at 320 mg/kg.

For `CC(=O)c1c(C)c(C)cc(C(=O)Nc2nnn[nH]2)c1O` [BX, 3-acetyl-2-hydroxy-4,5-dimethyl-N-(tetrazol-5-yl)benzamide], the ED100 in series [1] is 20 mg/kg. Further, the LD50 in series [2] was greater than 1000 mg/kg; in series [3] (setting [5]), 870 mg/kg.

For `CC(=O)c1cccc(C(=O)Nc2nnn[nH]2)c1O` [CA, 3-acetyl-2-hydroxy-N-(tetrazol-5-yl)benzamide], in series [1], the ED100 was determined as 0.1 mg/kg and the inhibition in vivo at 100 mg/kg came out at 64%. Also, the LD50 in series [2] was greater than 1000 mg/kg. Further, in series [3] (setting [5]), the median lethal dose (LD50) amounted to 500 mg/kg.

For `CCC(=O)c1cc(C)cc(C(=O)Nc2nnn[nH]2)c1O` [CE, 2-hydroxy-5-methyl-3-propionyl-N-(tetrazol-5-yl)benzamide], in series [1], the ED100 stood at 0.05 mg/kg, the inhibition in vivo at 100 mg/kg turned out to be 99% and the ED50 came out at 0.4 mg/kg. In addition, the LD50 in series [2] is greater than 1000 mg/kg. Besides, the LD50 in series [3] (setting [5]) amounted to 270 mg/kg.

Take `CCC(=O)c1cc(CC)cc(C(=O)Nc2nnn[nH]2)c1O` [CF, 5-ethyl-2-hydroxy-3-propionyl-N-(tetrazol-5-yl)benzamide]: in series [1], the ED100 came out at 0.05 mg/kg, the inhibition in vivo at 100 mg/kg was 41% and the ED50 is 0.27 mg/kg. For the same compound, in series [2], the LD50 was greater than 1000 mg/kg. The LD50 in series [3] (setting [5]) was 280 mg/kg.

Take `N#Cc1cccc(C(=O)Nc2nnn[nH]2)c1O` [CJ, 3-cyano-2-hydroxy-N-(tetrazol-5-yl)benzamide]: in series [1], the ED100 came out at 0.5 mg/kg, the inhibition in vivo at 100 mg/kg was 50% and the ED50 turned out to be 37 mg/kg. Further, in series [2], the LD50 was greater than 1000 mg/kg. For the same compound, in series [3] (setting [5]), the LD50 is greater than 1000 mg/kg.

Take `CC(=O)c1cc(C(=O)Nc2nnn[nH]2)c(O)c([N+](=O)[O-])c1` [CQ, 5-acetyl-2-hydroxy-3-nitro-N-(tetrazol-5-yl)benzamide]: in series [1], the ED100 was determined as 0.2 mg/kg and the inhibition in vivo at 100 mg/kg was 56%. Moreover, the LD50 in series [2] is greater than 1000 mg/kg. Moreover, the LD50 in series [3] (setting [5]) was determined as 890 mg/kg.

With `Cc1cc(C(=O)Nc2nnn[nH]2)c(O)c(C(=O)c2ccccc2)c1` [CR, 3-benzoyl-2-hydroxy-5-methyl-N-(tetrazol-5-yl)benzamide], in series [1], the ED100 turned out to be 1 mg/kg. In addition, the inhibition in vivo at 100 mg/kg in series [1] is 22%. The LD50 in series [2] was greater than 1000 mg/kg; in series [3] (setting [5]), 350 mg/kg.

Take `O=C(Nc1nnn[nH]1)c1cc(Cl)ccc1O` [Compound AD, 5-chloro-2-hydroxy-N-(tetrazol-5-yl)benzamide]: in series [1], the ED100 was determined as 1 mg/kg, the inhibition in vivo at 100 mg/kg is 94% and the 50% effective dose (ED50) stood at 13 mg/kg. The LD50 in series [2] is greater than 1000 mg/kg. Further, the LD50 in series [3] (setting [4]) worked out at 480 mg/kg.

As for `O=C(Nc1nnn[nH]1)c1cc([N+](=O)[O-])cc([N+](=O)[O-])c1O` [Compound AE, 2-hydroxy-3,5-dinitro-N-(tetrazol-5-yl)benzamide], in series [1], the ED100 is 0.05 mg/kg, the inhibition in vivo at 100 mg/kg came out at 80% and the ED50 was 0.1 to 0.45 mg/kg. Moreover, in series [2], the median lethal dose (LD50) is greater than 1000 mg/kg. In addition, the LD50 in series [3] (setting [5]) worked out at 490 mg/kg.

On to `O=C(Nc1nnn[nH]1)c1cccc(Br)c1O` [Compound AL, 3-bromo-2-hydroxy-N-(tetrazol-5-yl)benzamide], for which, in series [1], the ED100 is 10 mg/kg, the inhibition in vivo at 100 mg/kg stood at 69% and the ED50 turned out to be 55 mg/kg. Also, in series [2], the LD50 was found to be 794 mg/kg. Besides, the LD50 in series [3] (setting [5]) was determined as 540 mg/kg.
